Test results published in ChEMBL document CHEMBL3885881, “DrugMatrix”.

Species on record: Rattus norvegicus
Assay: DrugMatrix - Regimen: Daily Repeat
Assay type: toxicity, organism-based, Sprague-Dawley
Design: regimen Daily Repeat, gender Male, age 6-8 weeks
Conditions: in vivo, po, route oral GAVAGE, vehicle .5 % CMC; for ABSOLUTE BASOPHIL / ABSOLUTE EOSINOPHIL / ABSOLUTE LYMPHOCYTE / ABSOLUTE MONOCYTE / ABSOLUTE SEGMENTED NEUTROPHIL / BASOPHIL / EOSINOPHIL / ERYTHROCYTE COUNT / HEMATOCRIT / HEMOGLOBIN / LEUKOCYTE COUNT / LYMPHOCYTE / MEAN CORPUSCULAR HEMOGLOBIN / MEAN CORPUSCULAR HEMOGLOBIN CONCENTRATION / MEAN CORPUSCULAR VOLUME / MONOCYTE / NEUTROPHIL / NUCLEATED RED BLOOD CELLS / PLATELET COUNT: tissue Blood; for ALANINE AMINOTRANSFERASE / ALBUMIN / ALKALINE PHOSPHATASE / ASPARTATE AMINOTRANSFERASE / BLOOD UREA NITROGEN / CARBON DIOXIDE / CHLORIDE / CHOLESTEROL / CREATINE PHOSPHOKINASE / CREATININE / GLUCOSE / LACTATE DEHYDROGENASE / LIPASE / PHOSPHORUS / POTASSIUM / SODIUM / TOTAL BILIRUBIN / TOTAL PROTEIN / URIC ACID: tissue Plasma
[1] = 50 mg/kg, 120 h, dose level Low, time 5 day
[2] = 1500 mg/kg, 72 h, dose level High, time 3 day
[3] = 1500 mg/kg, 120 h, dose level High, time 5 day

CN(C)[C@@H]1C(O)=C(C(N)=O)C(=O)[C@@]2(O)C(O)=C3C(=O)c4c(O)ccc(Cl)c4[C@@](C)(O)[C@H]3C[C@@H]12 [CHLORTETRACYCLINE]
ABSOLUTE BASOPHIL [1]: 0 CELLS/uL
ABSOLUTE EOSINOPHIL [1]: 0 CELLS/uL
ABSOLUTE LYMPHOCYTE [1]: 12641 CELLS/uL
ABSOLUTE MONOCYTE [1]: 0 CELLS/uL
ABSOLUTE SEGMENTED NEUTROPHIL [1]: 859 CELLS/uL
BASOPHIL [1]: 0%
EOSINOPHIL [1]: 0%
ERYTHROCYTE COUNT [1]: 5.53 x10E6/uL
HEMATOCRIT [1]: 33.27%
HEMOGLOBIN [1]: 13.43 G/DL
LEUKOCYTE COUNT [1]: 13.5 x10E3/uL
LYMPHOCYTE [1]: 93.33%
MEAN CORPUSCULAR HEMOGLOBIN [1]: 24.33 pg
MEAN CORPUSCULAR HEMOGLOBIN CONCENTRATION [1]: 40.4 G/DL
MEAN CORPUSCULAR VOLUME [1]: 60.17 fL
MONOCYTE [1]: 0%
NEUTROPHIL [1]: 6.67%
NUCLEATED RED BLOOD CELLS [1]: 0 /100WBC
PLATELET COUNT [1]: 1240.33 x10E3/uL
ALANINE AMINOTRANSFERASE [1]: 54 u/L
ALBUMIN [1]: 4.03 G/DL
ALKALINE PHOSPHATASE [1]: 291.33 u/L
ASPARTATE AMINOTRANSFERASE [1]: 84 u/L
BLOOD UREA NITROGEN [1]: 17.33 mg/dL
CARBON DIOXIDE [1]: 22.67 mmol/L
CHLORIDE [1]: 103.33 MEQ/L
CHOLESTEROL [1]: 58.33 mg/dL
CREATINE PHOSPHOKINASE [1]: 329.33 u/L
CREATININE [1]: 0.2 mg/dL
GLUCOSE [1]: 159.67 mg/dL
LACTATE DEHYDROGENASE [1]: 155.33 u/L
LIPASE [1]: 9.33 u/L
PHOSPHORUS [1]: 12.97 mg/dL
POTASSIUM [1]: 6.97 MEQ/L
SODIUM [1]: 144.3 MEQ/L
TOTAL BILIRUBIN [1]: 0.17 mg/dL
TOTAL PROTEIN [1]: 5.73 G/DL
URIC ACID [1]: 2.13 mg/dL
ABSOLUTE BASOPHIL [2]: 0 CELLS/uL
ABSOLUTE EOSINOPHIL [2]: 19 CELLS/uL
ABSOLUTE LYMPHOCYTE [2]: 5616.67 CELLS/uL
ABSOLUTE MONOCYTE [2]: 262.67 CELLS/uL
ABSOLUTE SEGMENTED NEUTROPHIL [2]: 601.67 CELLS/uL
BASOPHIL [2]: 0%
EOSINOPHIL [2]: 0.33%
ERYTHROCYTE COUNT [2]: 5.83 x10E6/uL
HEMATOCRIT [2]: 36%
HEMOGLOBIN [2]: 14.6 G/DL
LEUKOCYTE COUNT [2]: 6.5 x10E3/uL
LYMPHOCYTE [2]: 86%
MEAN CORPUSCULAR HEMOGLOBIN [2]: 25.13 pg
MEAN CORPUSCULAR HEMOGLOBIN CONCENTRATION [2]: 40.57 G/DL
MEAN CORPUSCULAR VOLUME [2]: 61.8 fL
MONOCYTE [2]: 4%
NEUTROPHIL [2]: 9.67%
NUCLEATED RED BLOOD CELLS [2]: 0 /100WBC
PLATELET COUNT [2]: 1359 x10E3/uL
ALANINE AMINOTRANSFERASE [2]: 54 u/L
ALBUMIN [2]: 4.27 G/DL
ALKALINE PHOSPHATASE [2]: 407 u/L
ASPARTATE AMINOTRANSFERASE [2]: 99.33 u/L
BLOOD UREA NITROGEN [2]: 17 mg/dL
CARBON DIOXIDE [2]: 25 mmol/L
CHLORIDE [2]: 104.33 MEQ/L
CHOLESTEROL [2]: 70.33 mg/dL
CREATINE PHOSPHOKINASE [2]: 633 u/L
CREATININE [2]: 0.16 mg/dL
GLUCOSE [2]: 163.67 mg/dL
LACTATE DEHYDROGENASE [2]: 129.67 u/L
LIPASE [2]: 9.33 u/L
PHOSPHORUS [2]: 12.37 mg/dL
POTASSIUM [2]: 5.95 MEQ/L
SODIUM [2]: 148.37 MEQ/L
TOTAL BILIRUBIN [2]: 0.23 mg/dL
TOTAL PROTEIN [2]: 6 G/DL
URIC ACID [2]: 1.87 mg/dL
ABSOLUTE BASOPHIL [3]: 0 CELLS/uL
ABSOLUTE EOSINOPHIL [3]: 167.33 CELLS/uL
ABSOLUTE LYMPHOCYTE [3]: 18100 CELLS/uL
ABSOLUTE MONOCYTE [3]: 0 CELLS/uL
ABSOLUTE SEGMENTED NEUTROPHIL [3]: 1266 CELLS/uL
BASOPHIL [3]: 0%
EOSINOPHIL [3]: 0.67%
ERYTHROCYTE COUNT [3]: 5.62 x10E6/uL
HEMATOCRIT [3]: 34.33%
HEMOGLOBIN [3]: 13.93 G/DL
LEUKOCYTE COUNT [3]: 19.53 x10E3/uL
LYMPHOCYTE [3]: 92.67%
MEAN CORPUSCULAR HEMOGLOBIN [3]: 24.83 pg
MEAN CORPUSCULAR HEMOGLOBIN CONCENTRATION [3]: 40.6 G/DL
MEAN CORPUSCULAR VOLUME [3]: 61.17 fL
MONOCYTE [3]: 0%
NEUTROPHIL [3]: 6.67%
NUCLEATED RED BLOOD CELLS [3]: 0.33 /100WBC
PLATELET COUNT [3]: 1340 x10E3/uL
ALANINE AMINOTRANSFERASE [3]: 61.33 u/L
ALBUMIN [3]: 3.73 G/DL
ALKALINE PHOSPHATASE [3]: 422.33 u/L
ASPARTATE AMINOTRANSFERASE [3]: 86.33 u/L
BLOOD UREA NITROGEN [3]: 19.67 mg/dL
CARBON DIOXIDE [3]: 28.67 mmol/L
CHLORIDE [3]: 100.67 MEQ/L
CHOLESTEROL [3]: 57 mg/dL
CREATINE PHOSPHOKINASE [3]: 301.67 u/L
CREATININE [3]: 0.19 mg/dL
GLUCOSE [3]: 151.33 mg/dL
LACTATE DEHYDROGENASE [3]: 67 u/L
LIPASE [3]: 10.33 u/L
PHOSPHORUS [3]: 11.03 mg/dL
POTASSIUM [3]: 5.95 MEQ/L
SODIUM [3]: 144.1 MEQ/L
TOTAL BILIRUBIN [3]: 0.17 mg/dL
TOTAL PROTEIN [3]: 5.23 G/DL
URIC ACID [3]: 1.57 mg/dL
